# Results as given in paper doi:10.1101/2024.04.19.590329, “Quantifying and controlling the proteolytic degradation of cell adhesion peptides” (bioRxiv, 2024).
# Non-standard residues stand in square brackets, D forms with d. Residues, ends and D or L forms follow the SMILES beside them. βAla = NCCC(=O)O
# Legend:
# [1] = test system: cells in gels, all cell types; assay: Viability of cells in gels (alamarBlue); format: cell-based, human; conditions: cells in PEG gels, days 0, 3 and 7, across all cell types
# Procedure: Cells were cultured in gels as described. A working solution was made by diluting the alamarBlue dye (Y00–100, Thermo Scientific) (1:10) with the same media cells were cultured in. The media the cells were in was replaced with one ml of working solution. One ml of working solution was also placed into 3 blank wells. The cells were then placed in the incubator 36°C, 5% CO2 for 3 hours. After 3 hours, 100 μL of the solution was sampled and placed into a 96 well plate, and fluorescence intensity was measured using a Tecan plate reader using 560Ex/590Em nm filter settings, reading from the bottom of the plate. Immediately after measurement, the alamar blue working solution was washed three times with appropriate media for each cell type being measured and placed back in the incubator. The same cells were used for each measurement during days 0, 3, and 7.
# [2] = Degradation of individual glycine-terminated peptide at 19.5 to 5,000 μM (cell type not stated); format: in vitro ADME; conditions: individual peptide with glycine at the terminus, initial concentration 5,000 μM, LCMS, cell type not stated (Fig. 4A)
# Procedure: The column temperature was a constant 29 °C. The Mass Spectrometer was operated in positive ion mode.
# Data Analysis was performed on Xcalibur Software (Thermo Scientific). […] Calculated data was visualized using RStudio.
# [3] = test system: hUVECs
# Procedure: Passage 2 of human umbilical vein endothelial cells (hUVECs) (Life Technology) were seeded into 24 well plates at a seeding density of 150,000 cells per well in 1ml of expansion media (Lifeline Cell Technology, LM-0002) containing ascorbic acid, hydrocortisone, FBS, L-Glutamine, rh-EGF, heparin, and EnGS-US (All supplements LifeFactors, LS-1122). After 24 hour the media was changed. Peptide libraries, each containing 19 peptides and the non-proteolytically degradable βFβAβAβAβAβA-NH2 internal standard, were added to the cell media for a final concentration of 37 μM per peptide. Each library was tested in triplicate per per cell type per study. 40 μl samples were collected from the media at hours 0, 1, 4, 8, 24, and 48. In-between timepoints samples were frozen −80°C. […]
# Data Analysis was performed on Xcalibur Software (Thermo Scientific). Peptides were identified automatically using the Thermo Xcalibur Processing Setup window where the mass (m/z) ±0.5 AMU and expected retention times for each quantified peptide were inputted. This was later used to isolate individual peptide species from the total ion count (TIC) trace using the Thermo Xcalibur Quan Setup window, where the area under the curve was calculated and visually inspected for accuracy. […] Relative amounts of a peptide of peptide were then calculated by normalized all values to their corresponding time zero area ratio.
molecule,measurement,setting,value
"cyclic GRGDSK(N3) (head to tail) [cRGD, Cyclic RGD peptide, positive control, has no terminus, tethered to PEG-DBCO hydrogel by azide]","viability within gels, in words",[1],greatest viability
CC(C)[C@H](NC(=O)[C@H](Cc1ccccc1)NC(=O)[C@H](CCC(=O)O)NC(=O)CNC(=O)[C@H](CCCNC(=N)N)NC(=O)CN)C(=O)NCCC(N)=O [amine-terminated RGEFV peptides] (H-GRGEFV[βAla]-NH2),peptide remaining after 48 hours,[2],5%
LIAANK,degradation in words,[3],rapidly degraded
